Patent US6497872B1, “Neural transplantation using proliferated multipotent neural stem cells and their progeny” (NeuroSpheres Holdings Ltd., priority 1991, dated 2002)

B1: CNTF: ciliary neurotrophic factor (protein, UniProt P26441 1-200, looked up)
Ciliary neurotrophic factor: MAFTEHSPLTPHRRDLCSRSIWLARKIRSDLTALTESYVKHQGLNKNINLDSADGMPVASTDQWSELTEAERLQENLQAYRTFHVLLARLLEDQQVHFTPTEGDFHQAIHTLLLQVAAFAYQIEELMILLEYKIPRNEADGMPINVGDGGLFEKKLWGLKVLQELSQWTVRSIHDLRFISSHQTGIPARGSHYIANNKKM

Experiments:
[1] = test system: constitutively proliferating subependymal cells; experiment: 3H-thymidine kill of constitutively proliferating subependymal cells, BrdU count (Example 24); format: in vivo, mouse; parameters: concentration or dose not given beside the values
Description: Adult male CD1 mice received a series of intraperitoneal injections of 3H-thymidine (0.8 ml per injection, specific activity 45-55 mCi/mmole, ICN Biomedical) on day 0 (3 injections, 1 every 4 hours) in order to kill the constitutively proliferating subependymal cells. On day 0.5, 1, 2, 4, 6, 8 or 12, animals received 2 BrdU injections 1 hour apart (see Example 25) and were sacrificed 0.5 hour after the last injection. In a second group of animals, 3H-thymidine injections were given on day 0 (3 injections, 1 every 4 hours), followed by an identical series of injections on day 2 or 4. Animals were allowed to survive for 8 days following the second series of injections ([…] and 12 respectively) at which time they received 2 injections of BrdU and were sacrificed 0.5 hours later. Animals were sacrificed and the brains were removed and processed as described in Example 25.

[2] = test system: relatively quiescent neural stem cells in subependyma; experiment: 3H-thymidine kill, number of neurospheres formed in vitro (Example 26); format: in vivo, mouse
Description: As detailed in Example 26 below, an experiment was performed to determine whether the in vitro stem cell is derived from the constitutively proliferating population or from the quiescent population. Animals were treated in one of the following ways: […] Adult male CD1 mice were divided into 4 groups. Group A animals received a series of 3H-thymidine injections on day 0 (3 injections, 1 every 4 hours). Animals in groups B and C received a series of 3H-thymidine injections on day 0 followed by a second series of injections on day 2 or 4. Group D animals received injections of physiological saline instead of 3H-thymidine over the same time course as group A. Animals from all groups were sacrificed by cervical dislocation 16-20 hours following the last series of injections. Brains were removed and neural tissue obtained from the subependyma surrounding the lateral ventricles in the forebrain was dissociated and the neural cells cultured as described in Example 5. At 6 and 8 days in vitro, the total number of spheres was counted in each of the 35 mm wells.

Primary striatal cells = experiment: Striatum-derived neurosphere proliferation in response to proliferative and regulatory factors (Example 43, Paradigm 1); format: cell-based, mouse; conditions: for Numbers of neurospheres generated (#): decrease (−) or increase (+) per well compared with absence of the REGULATORY FACTOR: 10-12 days; for numbers of neurospheres generated: in all of the proliferative factors or combinations tested
Description: Paradigm 1: Primary striatal cells prepared as outlined in Example 1 were suspended in Complete Medium, without growth factors, plated in 96 well plates (Nunclon) and incubated as described in Example 4. Following a one hour incubation period, a specific proliferative factor, or a combination of proliferative factors including EGF, or bFGF (recombinant human bFGF: R & D Systems), or a combination of EGF and bFGF, or EGF plus FGF plus heparan sulfate (Sigma), or bFGF plus heparan sulfate made up in Complete Medium at a concentration of 20 ng/ml for each of the growth factors and 2 μg/ml for heparan sulfate), was added to each well of the plate.
Retinoic acid (Sigma) was added at a concentration of 10^−6 M. 10 μl of one of these regulatory factor-containing solutions was added to each proliferative factor-containing well of the 96 well plates. Control wells, containing only proliferative factors, were also prepared. […]
IL-2, IL-6, IL-8, MIP-1∂, MIP-1β, MIP-2, TNFα and EGF additions were repeated every second day, CNTF which was added each day and retinoic acid, NGF and PDGF were added only once, at the beginning of the experiment. The cells were incubated for a period of 10-12 days. The number of neurospheres in each well was counted and the resulting counts tabulated using Cricket Graph III. Other relevant information regarding sphere size and shape were also noted.

[3] = test system: EGF-generated neurospheres; experiment: Effect of growth factors on neurosphere differentiation, immunocytochemistry (Example 8); format: cell-based, mouse
Description: Six to 8 days after the first passage, the neurospheres were removed and centrifuged at 400 r.p.m. The EGF-containing supernatant was removed and the pellet suspended in EGF-free complete medium containing 1% FBS. Neurospheres (approximately 0.5-1.0×10^6 cells/well) were plated on poly-L-ornithine-coated (15 μg/ml) glass coverslips in 24 well Nuclon (1.0 ml/well) culture dishes. After 24 hours in culture, the coverslips were transferred to 12 well (Costar) culture dishes containing complete medium containing 0.5% FBS. The medium was changed every 4-7 days. This differentiation procedure is referred to as the “Rapid Differentiation Paradigm” or RDP.
Six to 8 days after the first passage, the neurospheres were removed and centrifuged at 400 r.p.m. The EGF-containing media was removed and the pellet was suspended in EGF-free complete medium containing 1% FBS. The neurospheres were mechanically dissociated into single cells with a fire-polished Pasteur pipette and centrifuged at 800 r.p.m. for 5 minutes. Between 0.5×10^6 and 1.0×10^6 cells were plated on poly-L-ornithine-coated (15 μg/ml) glass coverslips in 24 well Nuclon (1.0 ml/well) culture dishes. The EGF-free culture medium containing 1% FBS was changed every 4-7 days.
Neurospheres were washed free of EGF by serial transfers through changes of EGF-free medium. A single neurosphere was plated onto poly-L-ornithine-coated (15 μg/ml) glass coverslips in a 24-well plate. The culture medium used was complete medium with or without I % FBS. The medium was changed every 4-7 days.
Neurospheres were washed free of EGF by serial transfers through changes of EGF-free medium. A single neurosphere was mechanically dissociated in a 0.5 ml Eppendorf centrifuge tube and all the cells were plated onto a 35 mm culture dish. Complete medium was used with or without 1% FBS.
The effects of CNTF, FGF-2, BDNF, and retinoic acid on neurosphere differentiation were tested using the differentiation paradigms set forth in Example 7.
The effect of CNTF was assayed in paradigms 1 and 3. For both paradigms, CNTF was added either at the beginning of the experiment at a concentration of 10 ng/ml or daily at a concentration of 1 ng/ml.
Three different antibodies directed against 04, galactocerebroside (GalC) and MBP were used to study the effect of CNTF on the oligodendrocytes of paradigm 1. CNTF had no effect on the number of 04(+) cells, but there was an increase in the number of GalC(+) and MBP(+) cells compared with the control. Thus it appears that CNTF plays a role in the maturation of oligodendrocytes.
The effect of FGF-2 was tested using paradigms 2 and 4. In paradigm 2, 20 ng/ml of FGF-2 was added at the beginning of the experiment and cells were stained 7 days later. FGF-2 increased the number of GFAP(+) cells and the number of NSE(+) cells.
In paradigm 4, 20 ng/ml of FGF-2 was added at the beginning of the experiment and assayed 7-10 days later. […] It induced two different cell types to divide, neuroblasts and bipotential progenitor cells. The neuroblast produced, on average, 6 neurons while the bipotential cell produced approximately 6 neurons and a number of astrocytes.

[4] = PROLIFERATIVE FACTOR EGF 20 ng/ml
[5] = PROLIFERATIVE FACTOR bFGF 20 ng/ml
[6] = PROLIFERATIVE FACTORS EGF + bFGF + Heparan
[7] = PROLIFERATIVE FACTORS EGF + bFGF
[8] = PROLIFERATIVE FACTORS bFGF + Heparan
[9] = paradigm 1, CNTF 10 ng/ml at beginning or 1 ng/ml daily

Molecule	Numbers of neurospheres generated (#): decrease (−) or increase (+) per well compared with absence of the REGULATORY FACTOR (Primary striatal cells; [4]) [%]	Size of neurospheres compared to PROLIFERATIVE FACTORS alone (Primary striatal cells; PROLIFERATIVE FACTOR bFGF)	Numbers of neurospheres generated (#): decrease (−) or increase (+) per well compared with absence of the REGULATORY FACTOR (Primary striatal cells; [5]) [%]	Numbers of neurospheres generated (#): decrease (−) or increase (+) per well compared with absence of the REGULATORY FACTOR (Primary striatal cells; [6]) [%]	Numbers of neurospheres generated (#): decrease (−) or increase (+) per well compared with absence of the REGULATORY FACTOR (Primary striatal cells; [7]) [%]	Numbers of neurospheres generated (#): decrease (−) or increase (+) per well compared with absence of the REGULATORY FACTOR (Primary striatal cells; [8]) [%]	numbers of neurospheres generated (Primary striatal cells)	also measured
Cc1cn([C@H]2C[C@H](O)[C@@H](CO)O2)c(=O)[nH]c1=O [3H-thymidine]								proliferating subependymal population relative to controls ([1]; one kill on day 0, 8 days): 85%; proliferating subependymal population relative to controls ([1]; one kill on day 0, 8 days, listed as radioactive thymidine): back to control levels; proliferating subependymal population relative to controls ([1]; one kill on day 0, day 1 post-kill): 10%; proliferating subependymal population relative to controls ([1]; second kill on day 2, 8 days later): 45%; proliferating subependymal population relative to controls ([1]; second kill on day 2, 31 days after the second kill): 63%; proliferating subependymal population relative to controls ([1]; second kill on day 4, 8 days later): return to control values; proliferating subependymal population relative to controls ([1]; second kill on day 4, 8 days later, listed as radioactive thymidine): 85%; Number of Neurospheres produced in vitro relative to control ([2]; high doses on day 0): the same number of spheres; Number of Neurospheres produced in vitro relative to control ([2]; high doses on day 0, listed as radioactive thymidine): 100%; Number of Neurospheres produced in vitro relative to control ([2]; high doses on day 0 and day 2): 45%; Number of Neurospheres produced in vitro relative to control ([2]; high doses on day 0 and day 2, listed as radioactive thymidine): 45%; Number of Neurospheres produced in vitro relative to control ([2]; high doses on day 0 and day 4): not significantly different from control values; Number of Neurospheres produced in vitro relative to control ([2]; high doses on day 0 and day 4, listed as radioactive thymidine): 85%
CC1=C(/C=C/C(C)=C/C=C/C(C)=C/C(=O)O)C(C)(C)CCC1 [Retinoic Acid, retinoic acid, reference compound]	−8	−	−61	−45	−31	−65		
PDGF	−1.5		−4	−27	−26	−10	significantly reduced	
TNFα	−17		−17	−37	−41	−21	significantly reduced	
heparan sulfate [reference compound]	0	++	0		0			increase in size of the neurospheres formed in response to bFGF (Primary striatal cells; added to bFGF): about 400%; size of neurospheres relative to those which occur in response to EGF (Primary striatal cells; heparan sulfate 2 μg/ml added to bFGF generated spheres): approximately 70%
B1	−23		−77	−84	−81	−81	significantly reduced	Size of neurospheres compared to PROLIFERATIVE FACTORS alone (Primary striatal cells; PROLIFERATIVE FACTOR EGF): −; Size of neurospheres compared to PROLIFERATIVE FACTORS alone (Primary striatal cells; [8]): −; number of GalC(+) cells compared with control ([3]; paradigm 1): increase; number of MBP(+) cells compared with control ([3]; paradigm 1): increase; number of O4(+) cells ([3]; paradigm 1): no effect; number of NSE-immunoreactive cells [3, 9]: increased; number of tau-1-immunoreactive cells [3, 9]: increased; number of cells containing GABA and substance P ([3]; paradigm 1, preliminary testing): no increase; proliferation of flat, protoplasmic astrocytes ([3]; paradigm 1 without serum): increase; number of NSE(+) cells ([3]; paradigm 3, CNTF): increase
